molecular target: human PAI-1 (Homo sapiens, UniProt P05121); assay: Assay for determining the IC50 of inhibition of PAI-1 (active PAI-1 bound to tPA-coated plate, antibody detection); type: biochemical; details: inhibition of Plasminogen Activator Inhibitor-1; test compounds 1-50 μM incubated with human PAI-1 (50 ng/ml), pH 7.5, human tPA-coated plate
Method: This assay is based upon the non-SDS dissociable interaction between tPA and active PAI-1. Assay plates are initially coated with human tPA (10 μg/ml). Test compounds are dissolved in DMSO at 10 mM, then diluted with physiologic buffer (pH 7.5) to a final concentration of 1-50 μM. The test compounds are incubated with human PAI-1 (50 ng/ml) for 15 minutes at room temperature. The tPA-coated plate is washed with a solution of 0.05% Tween 20 and 0.1% BSA, then the plate is blocked with a solution of 3% BSA. An aliquot of the test compound/PAI-1 solution is then added to the tPA-coated plate, incubated at room temperature for 1 hour, and washed. Active PAI-1 bound to the plate is assessed by adding an aliquot of a 1:1000 dilution of the 33B8 monoclonal antibody against human PAI-1, and incubating the plate at room temperature for 1 hour (Molecular Innovations, Royal Oak, Mich.). The plate is again washed, and a solution of goat anti-mouse IgG-alkaline phosphatase conjugate is added at a 1:50,000 dilution in goat serum. The plate is incubated 30 minutes at room temperature, washed, and a solution of alkaline phosphatase substrate is added. The plate is incubated 45 minutes at room temperature, and color development is determined at OD405 nm. The quantitation of active PAI-1 bound to tPA at varying concentrations of the test compound is used to determine the IC50. Results are analyzed using a logarithmic best-fit equation. The assay sensitivity is 5 ng/mi of human PAI-1 as determined from a standard curve ranging from 0-100 ng/ml.

human PAI-1, sequence (P05121 24-402): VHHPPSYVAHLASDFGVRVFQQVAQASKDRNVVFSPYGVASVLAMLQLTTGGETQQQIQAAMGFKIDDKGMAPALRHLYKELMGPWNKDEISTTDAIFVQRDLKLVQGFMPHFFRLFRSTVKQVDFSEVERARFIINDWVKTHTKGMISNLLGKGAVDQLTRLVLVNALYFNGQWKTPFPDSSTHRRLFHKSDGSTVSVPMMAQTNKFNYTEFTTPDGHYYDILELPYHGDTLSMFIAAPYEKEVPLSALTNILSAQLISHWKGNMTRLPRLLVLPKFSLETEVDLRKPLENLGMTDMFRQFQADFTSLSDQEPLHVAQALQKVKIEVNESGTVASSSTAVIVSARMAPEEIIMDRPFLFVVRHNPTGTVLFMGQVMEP

| SMILES | IC50 [µM] |
| --- | --- |
| CCCCc1oc2ccccc2c1/C=N/OCCCOc1ccc(C(=O)O)c(O)c1 [Compound 3, 4-[3({[(1E)-(2-butyl-1-benzofuran-3-yl)methylidene]amino}oxy)propoxy]-2-hydroxybenzoic acid] | 19.2 |
| CCCCc1oc2ccccc2c1/C=N/OCCCOc1ccc(CC(=O)O)cc1 [Compound 2, {4-[3-({[(1E)-(2-butyl-1-benzofuran-3-yl)methylidene]amino}oxy)propoxy]phenyl}acetic acid] | 31.4 |
| CCCCc1oc2ccccc2c1/C=N/OCCCOc1ccc(C(=O)O)c(NC(=O)c2ccc(C(C)(C)C)cc2)c1 [Compound 1, 4-[3-({[(1E)-(2-butyl-1-benzofuran-3-yl)methylidene]amino}oxy)propoxy]-2-[(4-tert-butylbenzoyl)amino]-benzoic acid] | 44.4 |

Next, values leading:

| IC50 [µM] | SMILES |
| --- | --- |
| 29.2 | CCCCc1oc2ccccc2c1/C=N/OCc1ccc(C(=O)O)c(Br)c1 [Compound 5, 2-bromo-4-[({[(1E)-(2-butyl-1-benzofuran-3-yl)methylidene]amino}oxy)methyl]benzoic acid] |
| 24.8 | CCCCc1oc2ccccc2c1/C=N/OCCOc1ccc(C(=O)O)cc1Cl [Compound 4, 4-[2-({[(1E)-(2-butyl-1-benzofuran-3-yl)methylidene]amino]oxy)ethoxy]-3-chlorobenzoic acid] |
| 17.5 | CCCCc1oc2ccccc2c1/C=N/OCCCOc1ccc(C(=O)O)cc1-c1ccc(C(F)(F)F)cc1 [Compound 6, 6-[3-({[(1E)-(2-butyl-1-benzofuran-3-yl)methylidene]amino}oxy)propoxy]-4′-(trifluoromethyl)-1,1′-biphenyl-3-carboxylic acid] |
